Test results from patent US4359583A, “Antibiotics TM-531 B and TM-531 C” (Taisho Pharmaceutical Co., Ltd., priority 1980, dated 1982).
“Also recorded” adds a separate entry of the source.

Legend:
[1] = tested on: plant pathogenic microorganisms; assay: Physiological properties: growth inhibition; type: cell-based; conditions: in words
Solubility in solvents = type: physicochemical; conditions: measured as the sodium salt
gram-negative bacteria = assay: Physiological properties: growth inhibition; type: cell-based; conditions: in words
[2] = Improving the feed efficiency when incorporated into feeds; type: in vivo; conditions: incorporated into feeds for poultry, hogs, etc.
[3] = Classification of Nature (basic, acidic or neutral); type: physicochemical; conditions: measured as the sodium salt
yeasts = assay: Physiological properties: growth inhibition; type: cell-based; conditions: in words
[4] = tested on: protozoa as hog dysentery, coccidium, toxoplasma and trypanosoma; assay: Physiological properties: growth inhibition; type: cell-based; conditions: in words
[5] = tested on: Staphylococcus epidermidis TPR-25; assay: MIC, antibacterial activity on heart infusion agar; type: cell-based; conditions: inoculum 10^6 CFU/ml
Description: (§1) Using heart infusion agar as a medium the MIC (minimum inhibition concentration) of Antibiotics TM-531 B and TM-531 C against various bacteria were measured using an inoculum size of 10^6 CFU/ml, to determine its antibacterial activity.

Bacillus licheniformis = assay: MIC, antibacterial activity on heart infusion agar; type: cell-based; conditions: inoculum 10^6 CFU/ml
Description: as §1

[6] = tested on: Staphylococcus aureus Smith; assay: MIC, antibacterial activity on heart infusion agar; type: cell-based; conditions: inoculum 10^6 CFU/ml
Description: as §1

[7] = tested on: Pseudomonas aeruginosa IID 1052; assay: MIC, antibacterial activity on heart infusion agar; type: cell-based; conditions: inoculum 10^6 CFU/ml
Description: as §1

Micrococcus luteus NIHJ = assay: MIC, antibacterial activity on heart infusion agar; type: cell-based; conditions: inoculum 10^6 CFU/ml
Description: as §1

[8] = tested on: Bacillus subtilis ATCC 6633; assay: MIC, antibacterial activity on heart infusion agar; type: cell-based; conditions: inoculum 10^6 CFU/ml
Description: as §1

[9] = tested on: Staphylococcus aureus TPR-23; assay: MIC, antibacterial activity on heart infusion agar; type: cell-based; conditions: inoculum 10^6 CFU/ml
Description: as §1

[10] = tested on: Streptococcus faecalis ATCC 8043; assay: MIC, antibacterial activity on heart infusion agar; type: cell-based; conditions: inoculum 10^6 CFU/ml
Description: as §1

[11] = tested on: Escherichia coli NIHJ C-2; assay: MIC, antibacterial activity on heart infusion agar; type: cell-based; conditions: inoculum 10^6 CFU/ml
Description: as §1

[12] = tested on: Staphylococcus aureus FDA 209P; assay: MIC, antibacterial activity on heart infusion agar; type: cell-based; conditions: inoculum 10^6 CFU/ml
Description: as §1

[13] = tested on: Staphylococcus epidermidis IID 866; assay: MIC, antibacterial activity on heart infusion agar; type: cell-based; conditions: inoculum 10^6 CFU/ml
Description: as §1

gram-positive bacteria = assay: Physiological properties: growth inhibition; type: cell-based; conditions: in words

In the case of `CC/C=C(\C[C@@]1(C)COC2(CC[C@@](C)([C@H]3C[C@H](O[C@@H]4C[C@@H](O)[C@H](OC)[C@@H](C)O4)[C@@H](C)C4(O[C@@H](C5O[C@@](O)(CO)[C@H](C)C[C@@H]5C)C[C@H]4C)O3)O2)C[C@@H]1O)C(=O)C(C)CC(C)C(=O)[O-].[Na+]` (some centres unmarked) [TM-531 C], the “growth inhibition of plant pathogenic microorganisms” value [1] is reported as “inhibits the growth; also recorded: excellent growth inhibitory activity”, the “Solubility in organic solvents” value (Solubility in solvents; methanol, ethanol, acetone, ethyl acetate, n-hexane, chloroform and benzene) is reported as “soluble” and the Solubility in water (Solubility in solvents; water) is reported as “Insoluble”. For the same molecule, the “activity against gram-negative bacteria” value (gram-negative bacteria) was “ineffective”, the “improving the feed efficiency” value [2] was “effective” and the “Classification of Nature (basic, acidic or neutral)” value [3] was “Acidic”. The activity against yeasts (yeasts) was “ineffective”, the “growth inhibition of protozoa” value [4] was “inhibits the growth; also recorded: excellent growth inhibitory activity” and the “MIC (minimum inhibition concentration)” value [5] was 25 µg/mL. For the same molecule, the “MIC (minimum inhibition concentration)” value (Bacillus licheniformis) was 12.5 µg/mL, the “MIC (minimum inhibition concentration)” value [6] was 25 µg/mL and the “MIC (minimum inhibition concentration)” value [7] was > 100 µg/mL. For the same molecule, the “MIC (minimum inhibition concentration)” value (Micrococcus luteus NIHJ) was 12.5 µg/mL, the “MIC (minimum inhibition concentration)” value [8] was 25 µg/mL and the “MIC (minimum inhibition concentration)” value [9] was 50 µg/mL. For the same molecule, the “MIC (minimum inhibition concentration)” value [10] was 12.5 µg/mL, the “MIC (minimum inhibition concentration)” value [11] was > 100 µg/mL and the “MIC (minimum inhibition concentration)” value [12] was 12.5 µg/mL. The “MIC (minimum inhibition concentration)” value [13] was 25 µg/mL and the “growth inhibition of gram-positive bacteria” value (gram-positive bacteria) was “inhibits the growth; also recorded: excellent growth inhibitory activity”.
